The text below walks through data of patent US10450341B2, “Cyclic di-nucleotides as modulators of STING” (GlaxoSmithKline Intellectual Property Development Limited, priority 2014, dated 2019).

The assay deals with STING (Homo sapiens, UniProt Q86WV6). Nature of the assay: STING binding assay similar to that described by Li et al.
Chain of STING (Q86WV6 whole entry H232R, species assumed): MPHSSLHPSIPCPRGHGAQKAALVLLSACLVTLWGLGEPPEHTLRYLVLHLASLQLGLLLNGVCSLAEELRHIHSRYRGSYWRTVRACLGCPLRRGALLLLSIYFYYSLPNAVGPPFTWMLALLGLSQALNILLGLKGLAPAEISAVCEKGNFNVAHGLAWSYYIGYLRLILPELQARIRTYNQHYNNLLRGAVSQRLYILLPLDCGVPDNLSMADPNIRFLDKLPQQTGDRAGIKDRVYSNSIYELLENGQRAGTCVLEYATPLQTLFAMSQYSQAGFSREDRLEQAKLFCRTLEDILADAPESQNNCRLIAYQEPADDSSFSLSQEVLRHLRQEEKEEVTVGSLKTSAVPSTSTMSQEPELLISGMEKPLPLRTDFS

Usually IC50 stands for the concentration that inhibits the measured activity by half. `Nc1nc2c(ncn2[C@@H]2C[C@@H]3COP(=O)(O)O[C@H]4[C@@H](F)[C@H](n5cnc6c(N)ncnc65)O[C@@H]4COP(=O)(O)O[C@@H]2[C@@H]3O)c(=O)[nH]1` [Example 4, (1S,6R,8R,9R,10R,15R,17R,18R)-17-(2-Amino-6-oxo-6,9-dihydro-1H-purin-9-yl)-8-(6-amino-9H-purin-9-yl)-9-fluoro-3,12,18-trihydroxy-2,4,7,11,13-pentaoxa-3λ^5,12λ^5-diphosphatricyclo[13.2.1.0^6,10]octadecane-3,12-dione] showed an IC50 of less than 100 µM.
